The values below come from patent EP0304156A1, “Cyclohept b indolealkanoic acids” (MERCK FROSST CANADA INC., priority 1987, dated 1989).

≈ marks a conversion by molar mass, not a printed value. Where only a bound is given, the exact number is not on record here.

The subject of test [1] is Human platelets. Briefly: Inhibition of induced threshold aggregation of human platelets (agonist U44069). The class given is cell-based. Particulars: human platelet rich plasma, aggregating agent U44069; read-out: Inhibition of platelet aggregation (IC50 in mg/ml). On the procedure:
Inhibition of Induced Threshold Aggregation of Human Platelets
Human platelet rich plasma (PRP) is prepared from venous blood of male volunteers who have taken no medication for ten days prior to test. Blood is transferred into plastic centrifuge tubes containing 3.8% Trisodium Citrate in 0.9% NaCl (in a ratio of blood to anticoagulant of 9:1), mixed by gentle inversion, and centrifuged at room temperature for ten minutes at 116 g. The supernatant (PRP) is transferred into plastic tubes. Platelet poor plasma (PPP) is obtained by centrifuging the residual blood cells at 4000 g for ten minutes. PRP is left to stand at least one half hour prior to testing.
Platelet Aggregation is measured using a Payton Aggregometer and Recorder. Following calibration of the instrument, a cuvette containing PRP (225 microliters) is incubated for three minutes at 37°C. Drug vehicle (control), or a drug concentration is then added in a volume of 0.5 microliter. After one minute, the aggregating agent (U44069, 9,11-dideoxy-9a,11a-epoxymethano PGF2a) is added to the cuvette in a volume of 25 microliters. Recording is continued until the maximal response is obtained.
The threshold (approximately 20 - 30% of maximum) aggregation concentration of the agonist to be used is first determined in the presence of the drug vehicle (control). Test compounds are then assayed at 10 or 30 micrograms/ml initially, and if active, are further tested in order to determine the concentration range at which 20-80% of the threshold aggregatory response is inhibited. All drugs are dissolved in dimethylsulfoxide.
The height of the aggregation response (measured in divisions of the recorder paper, 1 division = 2.5 mm) in the presence of the drug is recorded, and calculated as percent inhibition of the mean height of the control threshold responses. The IC₅₀ (drug concentration which inhibits 50% of the aggregatory response) is obtained by regression analysis.

The test system of test [2] is Guinea Pig Tracheal Chain. Briefly: Estimation of pA2 values in guinea pig tracheal chain (contractile agonist U-44069). Set-up: species or system guinea pigs. The conditions noted are these: for Kb: Cavia porcellus, 5 min, guinea pig tracheal chain, agonist U-44069. The source says:
Estimation of pA₂ Values in Guinea Pig Tracheal Chain
Male albino Hartley strain guinea pigs (300-350 gm) were sacrificed by a blow to the head and exsanguinated. The trachea was removed, freed of extraneous tissue and sectioned into rings of 1-2 mm thickness. Five rings were tied together in series, ensuring that the tracheal muscle lay in the same vertical plane, and the cartilage of each ring then separated at a point directly opposite the muscle. The chains were suspended under 1 gm resting tension in modified Krebs solution (NaCl, 6.87; NaHCO₃, 2.1; dextrose, 2.1; KCl, 0.32; CaCl₂, 0.28; MgSO₄, 7H₂O, 0.11; KH₂PO₄, 0.16; gm/L: equilibrated with 5% CO₂ in O₂ for 1 hour) containing indomethacin (1.4 x 10-⁵M) to suppress endogenous protaglandin synthesis, Organ bath temperature was maintained at 37°C and 5% CO₂ in O₂ diffused continously. Isometric tension changes were recorded from a Gould-Statham (UTC 2) force displacement transducer connected to a Beckman Type R Dynograph. For assay purposes initial maximal contractions were elicited with a high concentration of the contractile agonist [U-44069, 9.11-dideoxy-9a,11a-epoxymethano PGF2a] and the tissue sub sequently washed at intervals until tension returned to baseline. Agonist dose response curves were obtained using a cumulative-dose schedule (4-8 doses) and the preparations then washed at regular intervals until baseline tension was recorded. After an appropriate interval (1-1.5 hrs) agonist dose response curves were repeated in the presence of antagonist drug concentrations. […] EC₅₀ values were obtained by regression analysis and used to calculate 'apparent' and Schild Plot pA₂ values by the method of Tallarida and Murray 1981.

Where [3] appears, read: relative to compound 2 (so in the source).

As for `O=C(O)CC1CCCc2c(n(Cc3ccc(Cl)cc3)c3ccc(F)cc23)C1` (stereo not shown) [Compound 1, 2-Fluoro-5-(p-chlorobenzyl)-5,6,7,8,9,10-hexahydrocyclo hept[b]indole-7-acetic acid], the IC50 in test [1] was 0.05 µg/mL (≈ 0.13 µM). Moreover, the Kb in test [2] is 3.16 nM.

On to `O=C(O)CC1CCCCc2c1c1cc(F)ccc1n2Cc1ccc(Cl)cc1` (stereo not shown) [Compound 2, 2-Fluoro-5-(p-chlorobenzyl)-5,6,7,8,9,10-hexahydrocyclo hept[b]indole-10-acetic acid], for which, in test [1], the IC50 was 4.5 µg/mL (≈ 11.7 µM). Moreover, the Kb in test [2] is 42.7 nM.

Turning to `O=C(O)C1CCCc2c(n(Cc3ccc(Cl)cc3)c3ccc(F)cc23)C1` (stereo not shown) [Compound 3, 2-Fluoro-5-(p-chlorobenzyl)-5,6,7,8,9,10-hexahydrocyclo hept[b]indole-7-carboxylic acid], the IC50 in test [1] was determined as 7.46 µg/mL (≈ 20.1 µM). Moreover, the Kb in test [2] was 129 nM.

For `O=C(O)CC1CCCCc2c1n(Cc1ccc(Cl)cc1)c1ccc(F)cc21` (stereo not shown) [Compound 4, 2-Fluoro-5-(p-chlorobenzyl)-5,6,7,8,9,10-hexahydrocyclohept[b]indole-6-acetic acid], in test [1], the IC50 is 0.015 µg/mL (≈ 0.0389 µM). In test [2], the Kb is 1.35 nM.

Consider `CS(=O)(=O)c1ccc(Cn2c3c(c4cc(F)cc(F)c42)CCCC(CC(=O)O)C3)cc1` (stereo not shown) [Compound 36, 2,4-Difluoro-5(p-methylsulfonylbenzyl)-5,6,7,8,9,10-hexahydrocyclohept[b]indole-7-acetic acid], for which the IC50 in test [1] was 0.012 µg/mL (≈ 0.0268 µM). Further, the Kb in test [2] was 8.32 nM.

For `COc1ccc2c(c1)c1c(n2Cc2ccc(Cl)cc2)CC(CC(=O)O)CC1` (stereo not shown) [Compound A, reference compound], the IC50 in test [1] came out at 3.5 µg/mL (≈ 9.12 µM). The Kb in test [2] is 158 nM. In test [2] (setting [3]), the “pA2 lower than that of compound 2” value is 1.7 log units and the “potency factor corresponding to the pA2 difference” value is reported as 15.

As to `COc1ccc2c(c1)c1c(n2Cc2ccc(Cl)cc2)CC(C(=O)O)CC1` (stereo not shown) [Compound B, reference compound], the IC50 in test [1] is > 30 µg/mL. For the same compound, the Kb in test [2] was 158 nM.
